≈ marks a conversion by molar mass, not a printed value.
Key:
JNK1 = JNK1 (Homo sapiens, UniProt P45983); test: JNK1 kinase (intrinsic ATPase, Kinase-Glo) assay; assay type: biochemical
Experimental: JNK1, JNK2, and JNK3 hydrolyze ATP to ADP without any peptide substrates. This allows a very robust and fast endpoint assay where the remaining concentration of ATP is measured (BMG ClarioStar Plus plate reader) using the Kinase-Glo Assay kit from Promega (V6711). A luminescence signal is measured, which is produced by the catalytic conversion of beetle luciferin to oxyluciferin by luciferase. Potential inhibition of luciferase (i.e., false negatives) is easily detected, because assays without kinase are always included, and less ATP than is present in this control reaction could also indicate an inhibition of luciferase, which can be excluded by a counter screen with only luciferase.
To mitigate violation of the linear initial velocity principle, which is a problem in end-point assays when doing dose-responses, the enzyme concentration was carefully optimized, in a total assay volume of 25 μL. […] The kinase reaction was done for 30 or 60 min at 30° C., and detection of leftover ATP was measured according to Promega's protocol. […] Fractional activities were obtained from normalized data. Non-linear regression (GraphPad Prism7) and a modified Morrison equation for tight binding was used to determine apparent Ki values for inhibitors, assuming no particular mode of inhibition. An orthogonal binding assay (LanthaScreen) was outsourced to ThermoFisher Scientific's SelectScreen Services to determine IC50 values.

[1] = In vitro metabolism in human liver microsomes; conditions: for half-life: human, microsomes
Experimental: (§1) The target product profile seeks to deliver JNK inhibitor as a once daily oral administration. To prioritize compounds for further development, in vitro metabolism of several CDD JNK inhibitors were determined to approximate the plasma half-life and the rate of metabolism of the compounds in vivo.

JNK2 = JNK2 (Homo sapiens, UniProt P45984); test: JNK2 kinase (intrinsic ATPase, Kinase-Glo) assay; assay type: biochemical; conditions: Table 3a; read-out: Kd JNK2
Chain of JNK2 (P45984 whole entry): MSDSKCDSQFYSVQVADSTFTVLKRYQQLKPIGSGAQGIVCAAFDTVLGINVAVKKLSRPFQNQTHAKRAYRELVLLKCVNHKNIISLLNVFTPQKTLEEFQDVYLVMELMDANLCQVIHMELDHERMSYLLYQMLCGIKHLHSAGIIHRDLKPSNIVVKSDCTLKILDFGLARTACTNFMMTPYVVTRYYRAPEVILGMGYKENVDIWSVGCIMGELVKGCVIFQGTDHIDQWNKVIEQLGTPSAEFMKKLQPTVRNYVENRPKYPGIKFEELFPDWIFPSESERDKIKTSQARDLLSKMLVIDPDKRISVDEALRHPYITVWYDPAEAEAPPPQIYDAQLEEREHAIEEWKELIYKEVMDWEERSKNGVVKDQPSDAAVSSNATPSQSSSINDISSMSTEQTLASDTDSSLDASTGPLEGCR

JNK3 = JNK3 (Homo sapiens, UniProt P53779); test: JNK3 kinase (intrinsic ATPase, Kinase-Glo) assay; assay type: biochemical; conditions: Table 3a; read-out: Kd JNK3
Chain of JNK3 (P53779 whole entry): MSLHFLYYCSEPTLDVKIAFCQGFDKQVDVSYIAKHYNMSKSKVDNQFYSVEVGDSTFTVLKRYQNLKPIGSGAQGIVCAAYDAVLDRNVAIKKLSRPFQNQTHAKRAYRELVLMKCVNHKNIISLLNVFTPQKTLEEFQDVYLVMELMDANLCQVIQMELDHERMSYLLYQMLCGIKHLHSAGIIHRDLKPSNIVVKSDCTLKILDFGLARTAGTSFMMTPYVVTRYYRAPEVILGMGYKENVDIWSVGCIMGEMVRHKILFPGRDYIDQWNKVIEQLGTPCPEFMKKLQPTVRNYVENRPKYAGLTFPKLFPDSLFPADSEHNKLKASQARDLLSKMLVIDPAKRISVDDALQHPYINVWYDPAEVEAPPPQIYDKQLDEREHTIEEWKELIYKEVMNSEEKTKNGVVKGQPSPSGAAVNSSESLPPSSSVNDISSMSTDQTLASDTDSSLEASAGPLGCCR

[2] = In vitro metabolism in mouse liver microsomes; conditions: for half-life: mouse, microsomes
Experimental: as §1

Chain of JNK1 (P45983 whole entry): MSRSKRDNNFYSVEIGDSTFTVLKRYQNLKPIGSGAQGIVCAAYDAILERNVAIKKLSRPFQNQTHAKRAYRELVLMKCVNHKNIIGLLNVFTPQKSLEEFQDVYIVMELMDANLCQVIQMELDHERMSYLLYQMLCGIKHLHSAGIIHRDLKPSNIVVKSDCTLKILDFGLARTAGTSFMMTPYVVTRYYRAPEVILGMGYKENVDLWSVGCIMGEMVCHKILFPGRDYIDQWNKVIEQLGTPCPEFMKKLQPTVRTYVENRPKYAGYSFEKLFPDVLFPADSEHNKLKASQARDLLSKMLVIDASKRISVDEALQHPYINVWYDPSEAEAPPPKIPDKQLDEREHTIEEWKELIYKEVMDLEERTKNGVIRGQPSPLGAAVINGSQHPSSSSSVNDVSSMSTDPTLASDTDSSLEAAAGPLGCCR

Structure (SMILES): CN(C)CCNC(=O)c1cc2c(-c3cnc4[nH]ccc4c3)cccc2s1 [CDD-3085, N-(2-(dimethylamino)ethyl)-4-(1H-pyrrolo[2,3-b]pyridin-5-yl)benzo[b]thiophene-2-carboxamide]
- solubility (Solubility): 170 µM (≈ 62 µg/mL)
- Kd (JNK1): 13.1 ± 1.2 nM
- half-life [1]: 7.5 h
- Kd (JNK2): 42.8 ± 8.3 nM
- Kd (JNK3): 30.3 ± 2.7 nM
- half-life [2]: 1.17 h

Structure (SMILES): O=C(Nc1ccccc1)c1ccn2ncc(-c3cnc4[nH]ccc4c3)c2c1 [CDD-2485, N-phenyl-3-(1H-pyrrolo[2,3-b]pyridin-5-yl)pyrazolo[1,5-a]pyridine-5-carboxamide]
- Kd (JNK1): 0.12 ± 0.09 nM
- Kd (JNK2): 0.95 ± 0.16 nM
- Kd (JNK3): 0.73 ± 0.02 nM

Structure (SMILES): O=C(c1cc2c(-c3cnc4[nH]ccc4c3)cccc2s1)N1CCN(c2ccccc2)C(=O)C1 [CDD-3116, 4-(4-(1H-pyrrolo[2,3-b]pyridin-5-yl)benzo[b]thiophene-2-carbonyl)-1-phenylpiperazin-2-one]
- solubility (Solubility): 4.2 µM (≈ 1.9 µg/mL)
- Kd (JNK1): 54.5 ± 5.4 nM
- half-life [1]: 0.8 h
- Kd (JNK2): 447 ± 65 nM
- Kd (JNK3): 114 ± 7 nM
- half-life [2]: 0.567 h

Structure (SMILES): Cc1nnc2n1-c1ccc(Cl)cc1C(c1ccccc1)=NC2 [Alprazolam, reference compound]
- Predicted half-life, HLM t1/2 [1]: 12.63 h
- Predicted half-life, MLM t1/2 [2]: 3.975 h

Structure (SMILES): O=C(Nc1ccc(O)c(C(=O)NC2COC2)c1)c1cc2c(-c3cnc4[nH]ccc4c3)cccc2s1 [CDD-3112, N-(4-hydroxy-3-(oxetan-3-ylcarbamoyl)phenyl)-4-(1H-pyrrolo[2,3-b]pyridin-5-yl)benzo[b]thiophene-2-carboxamide]
- solubility (Solubility): 1.6 µM (≈ 0.775 µg/mL)
- Kd (JNK1): 2.84 ± 0.49 nM
- half-life [1]: 1.65 h
- Kd (JNK2): 13.5 ± 0.8 nM
- Kd (JNK3): 6.4 ± 0.6 nM
- half-life [2]: 2.83 h

Structure (SMILES): CN(C)CCNC(=O)c1cc(NC(=O)c2cc3c(-c4cnc5[nH]ccc5c4)cccc3s2)ccc1O [CDD-3086, N-(3-((2-(dimethylamino)ethyl)carbamoyl)-4-hydroxyphenyl)-4-(1H-pyrrolo[2,3-b]pyridin-5-yl)benzo[b]thiophene-2-carboxamide]
- solubility (Solubility): 2 µM (≈ 0.999 µg/mL)
- Kd (JNK1): 0.67 ± 0.14 nM
- half-life [1]: 1.68 h
- Kd (JNK2): 5.98 ± 0.42 nM
- Kd (JNK3): 5.21 ± 0.46 nM
- half-life [2]: 1.5 h

Structure (SMILES): CN(C)C(=O)c1cc(NC(=O)c2ccc3ncc(-c4cnc5[nH]ccc5c4)n3c2)ccc1O [CDD-3016]
- solubility (Solubility): 9.7 µM (≈ 4.27 µg/mL)
- Kd (JNK1): 0.65 ± 0.15 nM
- half-life [1]: 4.88 h
- Kd (JNK2): 5.77 ± 0.8 nM
- Kd (JNK3): 1.48 ± 0.14 nM
- half-life [2]: 5.3 h

Structure (SMILES): Cc1sc2c(c1C)C(c1ccc(Cl)cc1)=N[C@@H](CC(=O)OC(C)(C)C)c1nnc(C)n1-2 [JQ1, reference compound]
- Predicted half-life, HLM t1/2 [1]: 0.275 h
- Predicted half-life, MLM t1/2 [2]: 0.193 h

Structure (SMILES): CN(C)C(=O)c1cc(NC(=O)c2cc3c(-c4cnc5[nH]ccc5c4)cccc3s2)ccc1F [CDD-2730, N-(3-(dimethylcarbamoyl)-4-fluorophenyl)-4-(1H-pyrrolo[2,3-b]pyridin-5-yl)benzo[b]thiophene-2-carboxamide]
- solubility (Solubility): 0.3 µM (≈ 0.138 µg/mL)
- Kd (JNK1): 0.58 ± 0.08 nM
- Kd (JNK2): 5.33 ± 0.52 nM
- Kd (JNK3): 1.86 ± 0.18 nM

Structure (SMILES): O=C(Nc1ccccc1)c1cc2c(-c3cnc4[nH]ccc4c3)cccc2s1 [CDD-2631, N-phenyl-4-(1H-pyrrolo[2,3-b]pyridin-5-yl)benzo[b]thiophene-2-carboxamide]
- Kd (JNK1): 5.9 ± 1.1 nM
- Kd (JNK2): 27.8 ± 3.6 nM
- Kd (JNK3): 12.7 ± 1.2 nM

Structure (SMILES): CNC(=O)c1cc(NC(=O)c2cc3c(-c4cnc5[nH]ccc5c4)cccc3s2)ccc1O [CDD-3087, N-(4-hydroxy-3-(methylcarbamoyl)phenyl)-4-(1H-pyrrolo[2,3-b]pyridin-5-yl)benzo[b]thiophene-2-carboxamide]
- solubility (Solubility): 0.4 µM (≈ 0.177 µg/mL)
- Kd (JNK1): 1.96 ± 0.53 nM
- half-life [1]: 1.97 h
- Kd (JNK2): 11.4 ± 0.81 nM
- Kd (JNK3): 4.54 ± 0.5 nM
- half-life [2]: 1.28 h

— patent publication US20260294922A1, “Inhibitors of JUN N-Terminal Kinases (JNK1, JNK2, and/or JNK3) and Mitogen-Activated Protein Kinases (MAPK8, MAPK9, and/or MAPK10) and Methods of Using Same” (Baylor College of Medicine, priority 2023, published 2026)
